The results in this text go back to patent US12240840B2, “Amide-substituted heterocyclic compounds for the treatment of conditions related to the modulation of IL-12, IL-23 and/or IFN-alpha” (BRISTOL-MYERS SQUIBB COMPANY, priority 2018, dated 2025).

Bounds are passed on as bounds.

The experiment concerns IFNα-induced pSTAT5 (pY694) in CD3 positive cells of human whole blood. As to the kind of experiment: IFNα-Induced STAT Phosphorylation in Human Whole Blood. Particulars: Homo sapiens, 1 h compound incubation, 1000 U/mL recombinant human IFNα A/D for 15 min, pSTAT5 in CD3 positive population, read-out: Human WB IFNα-Induced Stat Phosph. (IC50). Type of experiment: cell-based. Summed up: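 Read-out is median fluorescence intensity of pSTAT5 (pY694) in the CD3-positive gate, by flow cytometry after fix/lyse and permeabilization. Before that, whole human blood anticoagulated with EDTA or ACD-A received compound for an hour and 1000 U/mL IFNα A/D for 15 min.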

For `[2H]C([2H])([2H])NC(=O)c1nnc(NC(=O)C2CC2)cc1Nc1cccc(-c2nc(CN(C)C(=O)CN(C)C)no2)c1OC` [Example 172], the half-maximal inhibitory concentration (IC50) was determined as 1440 nM.

On to `[2H]C([2H])([2H])NC(=O)c1nnc(NC(=O)C2CC2)cc1Nc1cccc(-c2nc([C@H](CO)NC(=O)COC)no2)c1OC` [Example 202], for which the half-inhibitory concentration (IC50) was 1800 nM. In the case of `[2H]C([2H])([2H])NC(=O)c1nnc(NC(=O)C2CC2)cc1Nc1cccc(-c2cc(C(=O)NC(C)C)n(C)n2)c1OC` [Example 535], the 50% inhibitory concentration (IC50) amounted to 1500 nM. In the case of `[2H]C([2H])([2H])NC(=O)c1nnc(NC(=O)C2CC2)cc1Nc1cccc(-c2ncc(C(=O)N3CCNC(=O)C3)s2)c1OC` [Example 312] it was 70 nM. Turning to `[2H]C([2H])([2H])NC(=O)c1nnc(NC(=O)C2CC2)cc1Nc1cccc(-c2ncc(C(=O)N3CCN(S(=O)(=O)C=C)CC3)s2)c1OC` [Example 241], the IC50 stood at 620 nM.

Turning to `[2H]C([2H])([2H])NC(=O)c1cnc(NC(=O)C2CC2)cc1Nc1cccc(-c2nc(C3(NC(C)=O)CC3)no2)c1OC` [Example 214], the half-maximal inhibitory concentration (IC50) was 390 nM.

In the case of `[2H]C([2H])([2H])NC(=O)c1nnc(NC(=O)C2CC2)cc1Nc1cccc(-c2ncc(C(=O)NCCCN(C)C)s2)c1OC` [Example 317], the IC50 is 30 nM. In the case of `[2H]C([2H])([2H])NC(=O)c1nnc(NC(=O)C2CC2)cc1Nc1cccc(-c2ncc(C(=O)N3CCC(N(C)C)CC3)s2)c1OC` [Example 315], the IC50 was determined as 22 nM. The same measure for `[2H]C([2H])([2H])NC(=O)c1nnc(NC(=O)C2CC2)cc1Nc1cccc(-c2nc(CN3CCOCC3)no2)c1OC` [Example 124]: 210 nM; for `[2H]C([2H])([2H])NC(=O)c1nnc(NC(=O)C2CC2)cc1Nc1cccc(-c2nc(CN3CCN(C(=O)OC)CC3)no2)c1OC` [Example 138]: 180 nM. The same measure for `[2H]C([2H])([2H])NC(=O)c1nnc(NC(=O)C2CC2)cc1Nc1cccc(-c2nc(C)c(C(=O)N3CCOCC3)s2)c1OC` [Example 356]: 80 nM; for `[2H]C([2H])([2H])NC(=O)c1nnc(NC(=O)C2CC2)cc1Nc1cccc(-c2ncc(C(=O)NCCCN3CCCC3=O)s2)c1OC` [Example 293]: 30 nM; for `[2H]C([2H])([2H])NC(=O)c1nnc(NC(=O)C2CC2)cc1Nc1cccc(-c2cc(C(=O)N3CCN(C)CC3)n(C)n2)c1OC` [Example 480]: 70 nM. The same measure for `[2H]C([2H])([2H])NC(=O)c1nnc(NC(=O)C2CC2)cc1Nc1cccc(-c2ncc(C(=O)N3CCC(N4CCCCC4)CC3)s2)c1OC` [Example 351]: 60 nM; for `[2H]C([2H])([2H])NC(=O)c1nnc(NC(=O)C2CC2)cc1Nc1cccc(-c2cc(C(=O)NC3CCC(N(C)C)CC3)n(C)n2)c1OC` (stereo not shown) [Example 534]: 470 nM.

Take `[2H]C([2H])([2H])NC(=O)c1nnc(NC(=O)C2CC2)cc1Nc1cccc(-c2ccn(CCNC(=O)CC#N)n2)c1OC` [Example 470]: the half-maximal inhibitory concentration (IC50) was found to be 340 nM. With `[2H]C([2H])([2H])NC(=O)c1nnc(NC(=O)C2CC2)cc1Nc1cccc(-c2noc(CCC(=O)NCCC3CCCN3C)n2)c1OC` (stereo not shown) [Example 26], the IC50 stood at 3900 nM.

Turning to `[2H]C([2H])([2H])NC(=O)c1nnc(NC(=O)C2CC2)cc1Nc1cccc(-c2ncc(C(=O)NC(C)C)s2)c1OC` [Example 303], the IC50 was 100 nM. The same measure for `[2H]C([2H])([2H])NC(=O)c1nnc(NC(=O)C2CC2)cc1Nc1cccc(-c2cc(C(=O)N3C[C@@H](C)O[C@@H](C)C3)n(C)n2)c1OC` [Example 525]: 240 nM.

As to `[2H]C([2H])([2H])NC(=O)c1nnc(NC(=O)C2CC2)cc1Nc1cccc(-c2ncc(CNC(=O)CC#N)s2)c1OC` [Example 264], the concentration for half-maximal inhibition (IC50) amounted to 1550 nM. For `[2H]C([2H])([2H])NC(=O)c1nnc(NC(=O)C2CC2)cc1Nc1cccc(-c2nc(C(C)(C)O)no2)c1OC` [Example 186], the 50% inhibitory concentration (IC50) is 790 nM.

In the case of `[2H]C([2H])([2H])NC(=O)c1nnc(NC(=O)C2CC2)cc1Nc1cccc(-c2nc(CNC(=O)CNC(=O)OC(C)(C)C)no2)c1OC` [Example 157], the IC50 is above 10000 nM. On to `[2H]C([2H])([2H])NC(=O)c1nnc(NC(=O)C2CC2)cc1Nc1cccc(-c2ncc(C(=O)N3CC4CN(C)CC4C3)s2)c1OC` (stereo not shown) [Example 274], for which the IC50 turned out to be 50 nM. Take `[2H]C([2H])([2H])NC(=O)c1nnc(NC(=O)C2CC2)cc1Nc1cccc(-c2nc(C)c(C(=O)N(C)CC)s2)c1OC` [Example 370]: the IC50 was found to be 160 nM. In the case of `[2H]C([2H])([2H])NC(=O)c1nnc(NC(=O)C2CC2)cc1Nc1cccc(-c2nc(C(=O)N(C)C)cs2)c1OC` [Example 276] it was 690 nM; in that of `[2H]C([2H])([2H])NC(=O)c1nnc(NC(=O)C2CC2)cc1Nc1cccc(-c2cc(C(=O)NCC34CCN(CC3)CC4)n(C)n2)c1OC` [Example 504], above 10000 nM. The same measure for `[2H]C([2H])([2H])NC(=O)c1nnc(NC(=O)C2CC2)cc1Nc1cccc(-c2ncc(C(=O)N3CCC3)s2)c1OC` [Example 313]: 70 nM; for `[2H]C([2H])([2H])NC(=O)c1nnc(NC(=O)C2CC2)cc1Nc1cccc(-c2noc(C(=O)NCCOC)n2)c1OC` [Example 19]: 250 nM. The same measure for `[2H]C([2H])([2H])NC(=O)c1nnc(NC(=O)C2CC2)cc1Nc1cccc(-c2ncc(C(=O)NCC(C)(C)CN(C)C)s2)c1OC` [Example 339]: 40 nM; for `[2H]C([2H])([2H])NC(=O)c1nnc(NC(=O)C2CC2)cc1Nc1cccc(-c2nc(CC(C)C)no2)c1OC` [Example 122]: above 10000 nM. On to `[2H]C([2H])([2H])NC(=O)c1nnc(NC(=O)C2CC2)cc1Nc1cccc(-c2ccn(CCNC(C)=O)n2)c1OC` [Example 468], for which the IC50 stood at 270 nM.

In the case of `[2H]C([2H])([2H])NC(=O)c1nnc(NC(=O)C2CC2)cc1Nc1cccc(-c2nc(C)c(C(=O)N3CCC(N(C)C)CC3)s2)c1OC` [Example 354], the IC50 was 80 nM. Regarding `[2H]C([2H])([2H])NC(=O)c1nnc(NC(=O)C2CC2)cc1Nc1cccc(-c2nc(CN3CCS(=O)(=O)CC3)no2)c1OC` [Example 164], the IC50 was 200 nM. In the case of `[2H]C([2H])([2H])NC(=O)c1nnc(Nc2cnn(C)n2)cc1Nc1cccc(-c2ncc(C(C)O)s2)c1OC` (stereo not shown) [Example 385] it was 180 nM. With `[2H]C([2H])([2H])NC(=O)c1nnc(NC(=O)C2CC2)cc1Nc1cccc(-c2ncc(C(=O)N3CC(N(C)C)C3)s2)c1OC` [Example 334], the 50% inhibitory concentration (IC50) came out at 50 nM. The same measure for `COc1c(Nc2cc(NC(=O)C3CC3)nnc2C(N)=O)cccc1-c1ncc(C(=O)N(C)C)o1` [Example 413]: 170 nM; for `[2H]C([2H])([2H])NC(=O)c1nnc(NC(=O)C2CC2)cc1Nc1cccc(-c2noc(COC)n2)c1OC` [Example 72]: 80 nM; for `[2H]C([2H])([2H])NC(=O)c1nnc(NC(=O)C2CC2)cc1Nc1cc(F)cc(-c2cc(C(=O)N(C)CCCN(C)C)n(C)n2)c1OC` [Example 510]: 460 nM. Consider `[2H]C([2H])([2H])NC(=O)c1nnc(NC(=O)C2CC2)cc1Nc1cccc(-c2nc(C)c(C(=O)N3CCC3)s2)c1OC` [Example 358], for which the IC50 is 210 nM. The same measure for `[2H]C([2H])([2H])NC(=O)c1nnc(NC(=O)C2CC2)cc1Nc1cccc(-c2noc(CN3CCOC3=O)n2)c1OC` [Example 77]: 40 nM; for `COc1c(Nc2cc(NC(=O)C3CC3)nnc2C(N)=O)cccc1-c1noc(CN(C(C)C)S(C)(=O)=O)n1` [Example 61]: 60 nM. For the compound `[2H]C([2H])([2H])NC(=O)c1nnc(NC(=O)C2CC2)cc1Nc1cccc(-c2nc([C@H](N)[C@H](C)O)no2)c1OC` [Example 204], the IC50 is 140 nM.

On to `[2H]C([2H])([2H])NC(=O)c1cnc(NC(=O)C2CC2)cc1Nc1cccc(-c2cnn(CCNC(=O)CC#N)n2)c1OC` [Example 440], for which the concentration for half-maximal inhibition (IC50) amounted to 1160 nM. Take `COc1c(Nc2cc(NC(=O)C3CC3)nnc2C(N)=O)cccc1-c1ncc(C(=O)N2CCC(O)CC2)o1` [Example 419]: the IC50 was 200 nM. Take `[2H]C([2H])([2H])NC(=O)c1nnc(NC(=O)C2CC2)cc1Nc1cccc(-c2ncc(NC(=O)COC)s2)c1OC` [Example 283]: the IC50 came out at 360 nM. The same measure for `[2H]C([2H])([2H])NC(=O)c1nnc(NC(=O)C2CC2)cc1Nc1cccc(-c2ncc(CNC(=O)OC(C)(C)C)s2)c1OC` [Example 259]: above 10000 nM; for `[2H]C([2H])([2H])NC(=O)c1nnc(NC(=O)C2CC2)cc1Nc1cccc(-c2ncc(C(=O)NCCC(N)=O)s2)c1OC` [Example 311]: 200 nM; for `COc1c(Nc2cc(NC(=O)C3CC3)nnc2C(N)=O)cccc1-c1ncc(C(=O)N2CCCCC2)s1` [Example 403]: 190 nM. `[2H]C([2H])([2H])NC(=O)c1nnc(NC(=O)C2CC2)cc1Nc1cccc(-c2ncc(C(C)(C)O)s2)c1OC` [Example 267]: the IC50 is 150 nM. In the case of `[2H]C([2H])([2H])NC(=O)c1nnc(NC(=O)C2CC2)cc1Nc1cccc(-c2cc(C(C)(C)O)n(C)n2)c1OC` [Example 487], the concentration for half-maximal inhibition (IC50) came to 200 nM. The same measure for `[2H]C([2H])([2H])NC(=O)c1nnc(NC(=O)C2CC2)cc1Nc1cccc(-c2nc(CC(=O)NCC)no2)c1OC` [Example 178]: 550 nM; for `[2H]C([2H])([2H])NC(=O)c1nnc(NC(=O)C2CC2)cc1Nc1cccc(-c2nc(C(OCC)OCC)no2)c1OC` [Example 224]: 880 nM.

For `[2H]C([2H])([2H])NC(=O)c1nnc(NC(=O)C2CC2)cc1Nc1cccc(-c2cnn(CCNS(C)(=O)=O)c2)c1OC` [Example 560], the concentration for half-maximal inhibition (IC50) turned out to be 2210 nM. In the case of `COc1c(Nc2cc(NC(=O)C3CC3)nnc2C(N)=O)cccc1-c1ncc(C(=O)NCc2cccc(Cl)c2)o1` [Example 421] it was 290 nM; in that of `[2H]C([2H])([2H])NC(=O)c1nnc(NC(=O)C2CC2)cc1Nc1cccc(-c2nc(CC=C)no2)c1OC` [Example 229], above 10000 nM.

As a reminder, the IC50 is the point on the concentration scale where inhibition reaches its midpoint.
